Assay results published in paper PMC6515290, “Gypenoside LXXV Promotes Cutaneous Wound Healing In Vivo by Enhancing Connective Tissue Growth Factor Levels Via the Glucocorticoid Receptor Pathway” (Molecules, 2019).

Biological target: T1, glucocorticoid receptor (GR) (Homo sapiens, UniProt P04150)
T1 construct: gene NR3C1
T1 sequence (P04150 1-777): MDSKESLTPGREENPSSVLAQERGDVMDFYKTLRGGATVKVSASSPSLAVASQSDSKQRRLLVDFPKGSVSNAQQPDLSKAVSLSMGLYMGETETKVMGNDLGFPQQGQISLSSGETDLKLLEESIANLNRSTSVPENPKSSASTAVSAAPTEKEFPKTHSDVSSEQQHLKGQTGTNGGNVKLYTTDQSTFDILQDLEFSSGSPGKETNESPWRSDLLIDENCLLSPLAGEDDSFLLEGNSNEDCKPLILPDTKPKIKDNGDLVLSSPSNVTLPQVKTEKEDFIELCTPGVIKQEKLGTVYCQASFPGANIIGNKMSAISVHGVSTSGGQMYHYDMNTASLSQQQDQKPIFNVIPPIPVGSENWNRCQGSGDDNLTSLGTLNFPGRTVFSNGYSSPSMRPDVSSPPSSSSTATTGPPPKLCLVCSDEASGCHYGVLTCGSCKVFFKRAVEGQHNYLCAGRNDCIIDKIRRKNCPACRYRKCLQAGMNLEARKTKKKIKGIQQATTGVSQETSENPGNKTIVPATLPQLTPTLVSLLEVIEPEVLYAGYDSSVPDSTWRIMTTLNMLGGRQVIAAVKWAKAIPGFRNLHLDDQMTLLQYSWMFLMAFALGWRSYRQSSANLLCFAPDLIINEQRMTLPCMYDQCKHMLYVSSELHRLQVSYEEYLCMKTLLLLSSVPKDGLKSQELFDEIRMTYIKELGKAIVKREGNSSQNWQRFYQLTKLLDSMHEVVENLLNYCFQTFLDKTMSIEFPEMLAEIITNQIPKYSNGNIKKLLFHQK
Assay: PolarScreen GR competitor assay, fluorescence polarization displacement of Fluormone
Type: binding

With `CC(C)=CCC[C@](C)(O[C@@H]1O[C@H](CO[C@@H]2O[C@H](CO)[C@@H](O)[C@H](O)[C@H]2O)[C@@H](O)[C@H](O)[C@H]1O)[C@H]1CC[C@]2(C)[C@@H]1[C@H](O)C[C@@H]1[C@@]3(C)CC[C@H](O)C(C)(C)[C@@H]3CC[C@]12C` [G75, Gypenoside LXXV] the IC50 was 52.8 nM.
